Source: ChEMBL document CHEMBL1201862, “PubChem BioAssay data set” (2004)
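Compound exposure: 48 hours, 5 concentrations, 96-well plates. GI50 = concentration required for 50% inhibition of growth.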 Calls of active or inactive are those of the source. No stated cut-off is given here; in the data, active = GI50 up to about 1.1 µM and inactive = higher.

Legend:
Test in all cases: NCI-60 cell line screen, 48 h
786-0 = test system: 786-0
A498 = test system: A498
A549 = test system: A549
ACHN = test system: ACHN
BT-549 = test system: BT-549
CAKI-1 = test system: CAKI-1
CCRF-CEM = test system: CCRF-CEM
COLO 205 = test system: COLO 205
DU-145 = test system: DU-145
EKVX = test system: EKVX
HCT-116 = test system: HCT-116
HL-60 = test system: HL-60
HOP-92 = test system: HOP-92
HT-29 = test system: HT-29
Hs-578T = test system: Hs-578T
IGROV-1 = test system: IGROV-1
K562 = test system: K562
KM12 = test system: KM12
LOX IMVI = test system: LOX IMVI
M14 = test system: M14
MCF7 = test system: MCF7
MDA-MB-231 = test system: MDA-MB-231
MDA-MB-435 = test system: MDA-MB-435
MDA-N = test system: MDA-N
MOLT-4 = test system: MOLT-4
Malme-3M = test system: Malme-3M
NCI-H226 = test system: NCI-H226
NCI-H23 = test system: NCI-H23
NCI-H522 = test system: NCI-H522
OVCAR-3 = test system: OVCAR-3
OVCAR-5 = test system: OVCAR-5
OVCAR-8 = test system: OVCAR-8
PC-3 = test system: PC-3
RXF 393 = test system: RXF 393
SF-268 = test system: SF-268
SF-295 = test system: SF-295
SF-539 = test system: SF-539
SK-MEL-28 = test system: SK-MEL-28
SK-MEL-2 = test system: SK-MEL-2
SK-MEL-5 = test system: SK-MEL-5
SK-OV-3 = test system: SK-OV-3
SN12C = test system: SN12C
SNB-19 = test system: SNB-19
SNB-75 = test system: SNB-75
SR = test system: SR
SW-620 = test system: SW-620
T47D = test system: T47D
TK-10 = test system: TK-10
U-251 = test system: U-251
UACC-257 = test system: UACC-257
UACC-62 = test system: UACC-62
UO-31 = test system: UO-31
HCC 2998 = test system: HCC 2998
HCT-15 = test system: HCT-15
HOP-62 = test system: HOP-62
NCI-H460 = test system: NCI-H460
NCI/ADR-RES = test system: NCI/ADR-RES
OVCAR-4 = test system: OVCAR-4
RPMI-8226 = test system: RPMI-8226

CCCCCCCCCCCCCC1=C(O)C(=O)C(CC2=C(O)C(=O)C(CCCCCCCCCCCCC)=C(O)C2=O)=C(O)C1=O
GI50 (786-0): > 100 µM (inactive)
GI50 (A498): 90.4 µM (inactive)
GI50 (A549): > 100 µM (inactive)
GI50 (ACHN): 30.8 µM (inactive)
GI50 (BT-549): > 100 µM (inactive)
GI50 (CAKI-1): > 100 µM (inactive)
GI50 (CCRF-CEM): 98.2 µM (inactive)
GI50 (COLO 205): > 100 µM (inactive)
GI50 (DU-145): > 100 µM (inactive)
GI50 (EKVX): > 100 µM (inactive)
GI50 (HCT-116): > 100 µM (inactive)
GI50 (HL-60): 32.8 µM (inactive)
GI50 (HOP-92): 75.2 µM (inactive)
GI50 (HT-29): > 100 µM (inactive)
GI50 (Hs-578T): 36 µM (inactive)
GI50 (IGROV-1): > 100 µM (inactive)
GI50 (K562): 66.1 µM (inactive)
GI50 (KM12): > 100 µM (inactive)
GI50 (LOX IMVI): > 100 µM (inactive)
GI50 (M14): > 100 µM (inactive)
GI50 (MCF7): > 100 µM (inactive)
GI50 (MDA-MB-231): 51.9 µM (inactive)
GI50 (MDA-MB-435): > 10 µM (inactive)
GI50 (MDA-N): > 100 µM (inactive)
GI50 (MOLT-4): > 10 µM (inactive)
GI50 (Malme-3M): > 100 µM (inactive)
GI50 (NCI-H226): > 100 µM (inactive)
GI50 (NCI-H23): > 100 µM (inactive)
GI50 (NCI-H522): > 100 µM (inactive)
GI50 (OVCAR-3): > 100 µM (inactive)
GI50 (OVCAR-5): > 100 µM (inactive)
GI50 (OVCAR-8): > 100 µM (inactive)
GI50 (PC-3): > 100 µM (inactive)
GI50 (RXF 393): 6.11 µM (inactive)
GI50 (SF-268): 46.3 µM (inactive)
GI50 (SF-295): 52 µM (inactive)
GI50 (SF-539): > 100 µM (inactive)
GI50 (SK-MEL-28): > 100 µM (inactive)
GI50 (SK-MEL-2): > 100 µM (inactive)
GI50 (SK-MEL-5): > 100 µM (inactive)
GI50 (SK-OV-3): 44.7 µM (inactive)
GI50 (SN12C): > 100 µM (inactive)
GI50 (SNB-19): 27.9 µM (inactive)
GI50 (SNB-75): 22.3 µM (inactive)
GI50 (SR): 54.1 µM (inactive)
GI50 (SW-620): > 100 µM (inactive)
GI50 (T47D): > 100 µM (inactive)
GI50 (TK-10): 61.4 µM (inactive)
GI50 (U-251): 68.2 µM (inactive)
GI50 (UACC-257): > 100 µM (inactive)
GI50 (UACC-62): > 100 µM (inactive)
GI50 (UO-31): > 100 µM (inactive)

COc1ccc([S+]([O-])Cc2cc(OC)ccc2OC)cc1 (stereo unspecified)
GI50 (786-0): > 100 µM (inactive)
GI50 (A498): > 100 µM (inactive)
GI50 (A549): > 100 µM (inactive)
GI50 (ACHN): > 100 µM (inactive)
GI50 (BT-549): > 100 µM (inactive)
GI50 (CAKI-1): > 100 µM (inactive)
GI50 (CCRF-CEM): > 100 µM (inactive)
GI50 (COLO 205): > 100 µM (inactive)
GI50 (DU-145): > 100 µM (inactive)
GI50 (EKVX): > 100 µM (inactive)
GI50 (HCC 2998): > 100 µM (inactive)
GI50 (HCT-116): > 100 µM (inactive)
GI50 (HCT-15): > 100 µM
GI50 (HOP-62): > 100 µM (inactive)
GI50 (HOP-92): > 100 µM (inactive)
GI50 (HT-29): > 100 µM (inactive)
GI50 (IGROV-1): > 100 µM (inactive)
GI50 (K562): > 100 µM (inactive)
GI50 (KM12): > 100 µM (inactive)
GI50 (LOX IMVI): > 100 µM (inactive)
GI50 (M14): > 100 µM (inactive)
GI50 (MCF7): > 100 µM (inactive)
GI50 (MDA-MB-231): > 100 µM (inactive)
GI50 (MDA-MB-435): > 100 µM (inactive)
GI50 (MDA-N): > 100 µM (inactive)
GI50 (MOLT-4): > 100 µM (inactive)
GI50 (Malme-3M): > 100 µM (inactive)
GI50 (NCI-H226): > 100 µM (inactive)
GI50 (NCI-H23): > 100 µM (inactive)
GI50 (NCI-H460): > 100 µM (inactive)
GI50 (NCI-H522): > 100 µM (inactive)
GI50 (NCI/ADR-RES): > 100 µM (inactive)
GI50 (OVCAR-3): > 100 µM (inactive)
GI50 (OVCAR-4): > 100 µM (inactive)
GI50 (OVCAR-5): > 100 µM (inactive)
GI50 (OVCAR-8): > 100 µM (inactive)
GI50 (PC-3): > 100 µM (inactive)
GI50 (RXF 393): > 100 µM (inactive)
GI50 (SF-268): > 100 µM (inactive)
GI50 (SF-295): > 100 µM (inactive)
GI50 (SF-539): > 100 µM (inactive)
GI50 (SK-MEL-28): > 100 µM (inactive)
GI50 (SK-OV-3): > 100 µM (inactive)
GI50 (SN12C): > 100 µM (inactive)
GI50 (SNB-19): > 100 µM (inactive)
GI50 (SNB-75): > 100 µM (inactive)
GI50 (SW-620): > 100 µM (inactive)
GI50 (T47D): > 100 µM (inactive)
GI50 (TK-10): > 100 µM (inactive)
GI50 (U-251): > 100 µM (inactive)
GI50 (UACC-257): > 100 µM (inactive)
GI50 (UACC-62): > 100 µM (inactive)
GI50 (UO-31): > 100 µM (inactive)

CC(=O)c1cc2ccccc2oc1=O [3-ACETYLCOUMARIN]
GI50 (786-0): > 100 µM (inactive)
GI50 (A498): > 100 µM (inactive)
GI50 (A549): > 100 µM (inactive)
GI50 (ACHN): > 100 µM (inactive)
GI50 (BT-549): > 100 µM (inactive)
GI50 (CAKI-1): > 100 µM (inactive)
GI50 (CCRF-CEM): > 100 µM (inactive)
GI50 (COLO 205): > 100 µM (inactive)
GI50 (DU-145): > 100 µM (inactive)
GI50 (EKVX): > 100 µM (inactive)
GI50 (HCC 2998): > 100 µM (inactive)
GI50 (HCT-116): > 100 µM (inactive)
GI50 (HCT-15): > 100 µM
GI50 (HL-60): > 100 µM (inactive)
GI50 (HOP-62): > 100 µM (inactive)
GI50 (HOP-92): 48.8 µM (inactive)
GI50 (HT-29): > 100 µM (inactive)
GI50 (Hs-578T): > 100 µM (inactive)
GI50 (IGROV-1): > 100 µM (inactive)
GI50 (K562): > 100 µM (inactive)
GI50 (KM12): > 100 µM (inactive)
GI50 (LOX IMVI): > 100 µM (inactive)
GI50 (M14): > 100 µM (inactive)
GI50 (MCF7): 36.2 µM (inactive)
GI50 (MDA-MB-231): > 100 µM (inactive)
GI50 (MDA-MB-435): > 100 µM (inactive)
GI50 (MDA-N): > 100 µM (inactive)
GI50 (MOLT-4): > 100 µM (inactive)
GI50 (Malme-3M): > 100 µM (inactive)
GI50 (NCI-H226): > 100 µM (inactive)
GI50 (NCI-H23): > 100 µM (inactive)
GI50 (NCI-H460): > 100 µM (inactive)
GI50 (NCI-H522): > 100 µM (inactive)
GI50 (NCI/ADR-RES): > 100 µM (inactive)
GI50 (OVCAR-3): > 100 µM (inactive)
GI50 (OVCAR-4): > 100 µM (inactive)
GI50 (OVCAR-5): > 100 µM (inactive)
GI50 (OVCAR-8): > 100 µM (inactive)
GI50 (PC-3): > 100 µM (inactive)
GI50 (RPMI-8226): > 100 µM (inactive)
GI50 (RXF 393): > 100 µM (inactive)
GI50 (SF-268): > 100 µM (inactive)
GI50 (SF-295): > 100 µM (inactive)
GI50 (SF-539): > 100 µM (inactive)
GI50 (SK-MEL-28): > 100 µM (inactive)
GI50 (SK-MEL-2): > 100 µM (inactive)
GI50 (SK-MEL-5): > 100 µM (inactive)
GI50 (SN12C): > 100 µM (inactive)
GI50 (SNB-19): > 100 µM (inactive)
GI50 (SNB-75): > 100 µM (inactive)
GI50 (SR): > 100 µM (inactive)
GI50 (SW-620): > 100 µM (inactive)
GI50 (TK-10): > 100 µM (inactive)
GI50 (U-251): > 100 µM (inactive)
GI50 (UACC-257): > 100 µM (inactive)
GI50 (UO-31): 92.3 µM (inactive)
